Literature values, collected in paper PMC12697872, “Rethinking the AI Paradigm for Solubility Prediction of Drug‑Like Compounds with Dual‐Perspective Modeling and Experimental Validation” (Advanced Science, 2025).

conditions: discarded ambiguous entries of DrugBank database; ref DrugBank database (version 5.1.12) 24; cited from earlier work

In the case of Cc1ncc(COP(=O)(O)O)c(C=O)c1O [54-47-7], the “Experimental solubility (descriptive)” value is given as “Appreciable”.
In the case of Oc1ccc2c(c1)[C@@]13CCCC[C@@]1(O)[C@@H](C2)N(CC1CCC1)CC3 [42408-82-2], the “Experimental solubility (descriptive)” value is listed as “Moderate”.
For CCC(NC(C)C)C(O)c1ccc(O)c(O)c1 (stereo not shown) [79490-84-9], the “Experimental solubility (descriptive)” value is listed as “Appreciable”.

For O=C(O)c1ccc2nc(-c3cc(Cl)cc(Cl)c3)oc2c1 [594839-88-0], the Experimental solubility is given as over 50 mg/mL.
In the case of CN(CCN1CCC(OC(=O)Nc2ccccc2-c2ccccc2)CC1)C(=O)c1ccc(CN2CCC(C(N)=O)CC2)cc1 [864750-70-9], the Experimental solubility is given as under 1 mg/ml mg/mL.

same assay, conditions: experimental aqueous solubility as logS, sheet "DrugBank" of Supplement 2; ref DrugBank; cited from earlier work

In order of falling ex_logS:
1. OC(O)C(Cl)(Cl)Cl [Chloral hydrate]  0.6807
2. NCC[C@H](O)C(=O)N[C@@H]1C[C@H](N)[C@@H](O[C@H]2O[C@H](CN)[C@@H](O)[C@H](O)[C@H]2O)[C@H](O)[C@H]1O[C@H]1O[C@H](CO)[C@@H](O)[C@H](N)[C@H]1O [Amikacin]  -1.069
3. O=C(O)c1ccc(O)cc1O [2,4-Dihydroxybenzoic Acid]  -1.426
4. CN/C(=N/CCSCc1nc[nH]c1C)NC#N [Cimetidine]  -1.43
5. CC(=O)Oc1ccccc1C(=O)O [Acetylsalicylic acid]  -1.6122
6. CCCCC1(CC)C(=O)NC(=O)NC1=O [Butobarbital]  -1.638
7. CCOC(=O)[C@H](CCc1ccccc1)N[C@H]1CCCN2CCC[C@@H](C(=O)O)N2C1=O [Cilazapril]  -1.922
8. CCC1(CCC(C)C)C(=O)NC(=O)NC1=O [Amobarbital]  -2.574
9. C=CCc1ccccc1OCC(O)CNC(C)C (stereo not shown) [Alprenolol]  -2.659
10. CC1(C)S[C@@H]2[C@H](NC(=O)C(C(=O)O)c3ccccc3)C(=O)N2[C@H]1C(=O)O (stereo partly shown) [Carbenicillin]  -2.924
11. COc1ccc(CCN2CCC(Nc3nc4ccccc4n3Cc3ccc(F)cc3)CC2)cc1 [Astemizole]  -3.026
12. COc1ccc(C2C(=O)c3ccccc3C2=O)cc1 [Anisindione]  -3.5
13. C[C@]12CCC(=O)C=C1CC[C@@H]1[C@@H]2CC[C@]2(C)C(=O)CC[C@@H]12 [Androstenedione]  -3.695
14. CO[C@@]1(NC(=O)CSCC#N)C(=O)N2C(C(=O)O)=C(CSc3nnnn3C)CS[C@@H]21 [Cefmetazole]  -3.699
15. C[C@H]1C[C@H]2[C@@H]3CCC4=CC(=O)C=C[C@]4(C)[C@@]3(F)[C@@H](O)C[C@]2(C)[C@@]1(O)C(=O)CO [Betamethasone]  -3.771
16. CC=CC1=C(C(=O)O)N2C(=O)[C@@H](NC(=O)[C@H](N)c3ccc(O)cc3)[C@H]2SC1 [Cefprozil]  -3.85
17. C=CC1=C(C(=O)O)N2C(=O)[C@@H](NC(=O)/C(=N\OCC(=O)O)c3csc(N)n3)[C@H]2SC1 [Cefixime]  -3.9153
18. NS(=O)(=O)c1cc2c(cc1Cl)N=C(CSCc1ccccc1)NS2(=O)=O [Benzthiazide]  -4.686
19. CC(O)(CS(=O)(=O)c1ccc(F)cc1)C(=O)Nc1ccc(C#N)c(C(F)(F)F)c1 (stereo not shown) [Bicalutamide]  -4.935

same assay, conditions: experimental aqueous solubility as logS, sheet "DrugBank"; ref DrugBank database; cited from earlier work

In order of rising ex_logS:
1. COc1cc(C)c(/C=C/C(C)=C/C=C/C(C)=C/C(=O)O)c(C)c1C [Acitretin]  -6.651
2. CC[C@H]1OC(=O)[C@H](C)[C@@H](O[C@H]2C[C@@](C)(OC)[C@@H](O)[C@H](C)O2)[C@H](C)[C@@H](O[C@@H]2O[C@H](C)C[C@H](N(C)C)[C@H]2O)[C@](C)(OC)C[C@@H](C)C(=O)[C@H](C)[C@@H](O)[C@]1(C)O [Clarithromycin]  -6.355
3. CC(C)/N=c1\cc2n(-c3ccc(Cl)cc3)c3ccccc3nc-2cc1Nc1ccc(Cl)cc1 [Clofazimine]  -6.323
4. CC1=C(/C=C/C(C)=C/C=C/C(C)=C/C=C/C=C(C)/C=C/C=C(C)/C=C/C2=C(C)CCCC2(C)C)C(C)(C)CCC1 [Beta carotene]  -5.952
5. Clc1ccccc1C(c1ccccc1)(c1ccccc1)n1ccnc1 [Clotrimazole]  -5.847
6. CC1=C(/C=C/C(C)=C\C=C\C(C)=C\C(=O)O)C(C)(C)CCC1 [Alitretinoin]  -5.6996
7. CCC(=O)O[C@]1(c2ccccc2)CCN(C)C[C@H]1CC [Betameprodine]  -5.285
8. COc1cc(N)c(Cl)cc1C(=O)NC1CCN(CCCOc2ccc(F)cc2)CC1OC (stereo not shown) [Cisapride]  -5.235
9. CN(C)CCCN1c2ccccc2Sc2ccc(Cl)cc21 [Chlorpromazine]  -5.097
10. Oc1c(Cl)cc(Cl)cc1Sc1cc(Cl)cc(Cl)c1O [Bithionol]  -4.949
11. C[C@@](Cc1ccc(O)c(O)c1)(NN)C(=O)O [Carbidopa]  -4.775
12. COC(=O)OCOc1c2n(ccc1=O)N([C@@H]1c3ccccc3SCc3c1ccc(F)c3F)[C@@H]1COCCN1C2=O [Baloxavir marboxil]  -4.581
13. CC1(C)S[C@@H]2[C@H](/N=C/N3CCCCCC3)C(=O)N2[C@H]1C(=O)O [Amdinocillin]  -4.5
14. CO/N=C(\C(=O)N[C@@H]1C(=O)N2C(C(=O)[O-])=C(C[N+]3(C)CCCC3)CS[C@H]12)c1csc(N)n1 [Cefepime]  -4.4513
15. CN1CCN(C2=Nc3cc(Cl)ccc3Nc3ccccc32)CC1 [Clozapine]  -4.442
16. CC(=O)OCC(=O)[C@@]1(O)CC[C@H]2[C@@H]3CCC4=CC(=O)CC[C@]4(C)[C@H]3C(=O)C[C@@]21C [Cortisone acetate]  -4.304
17. CCCCC[C@H](O)/C=C/[C@H]1[C@H](O)CC(=O)[C@@H]1CCCCCCC(=O)O [Alprostadil]  -4.123
18. Cc1ccnc2c1ccc1c(C)ccnc12 [4,7-Dimethyl-[1,10]Phenanthroline]  -3.968
19. COc1ccc(-n2nc(C(N)=O)c3c2C(=O)N(c2ccc(N4CCCCC4=O)cc2)CC3)cc1 [Apixaban]  -3.621
20. NS(=O)(=O)c1cc2c(cc1C(F)(F)F)NC(Cc1ccccc1)NS2(=O)=O (stereo not shown) [Bendroflumethiazide]  -3.591
21. CC(=O)OCC1=C(C(=O)O)N2C(=O)[C@@H](NC(=O)[C@H](N)c3ccccc3)[C@H]2SC1 [Cephaloglycin]  -3.42
22. CC(=O)OCC1=C(C(=O)O)N2C(=O)[C@@H](NC(=O)Cc3cccs3)[C@H]2SC1 [Cefalotin]  -3.4
23. O=C(/C=C/c1cccc(S(=O)(=O)Nc2ccccc2)c1)NO [Belinostat]  -3.357
24. CCCCN1CCCCC1C(=O)Nc1c(C)cccc1C (stereo not shown) [Bupivacaine]  -3.22
25. CN1C(=O)CC(=O)N(c2ccccc2)c2cc(Cl)ccc21 [Clobazam]  -3.204
26. CCCCOC(=O)c1ccc(N)cc1 [Butamben]  -3.14
27. CCCC(=O)Nc1ccc(OCC(O)CNC(C)C)c(C(C)=O)c1 (stereo not shown) [Acebutolol]  -3.114
28. O=C(O)CCCC[C@@H]1SC[C@@H]2NC(=O)N[C@@H]21 [Biotin]  -3.046
29. CCOc1ccc(Nc2ccc(/C(=C3C=C/C(=[N+](/CC)Cc4cccc(S(=O)(=O)[O-])c4)C=C/3C)c3ccc(N(CC)Cc4cccc(S(=O)(=O)O)c4)cc3C)cc2)cc1 [Brilliant blue G]  -2.931
30. CC(C)(C#N)c1cc(Cn2cncn2)cc(C(C)(C)C#N)c1 [Anastrozole]  -2.743
31. CC(=O)OCC1=C(C(=O)O)N2C(=O)[C@@H](NC(=O)CSc3ccncc3)[C@H]2SC1 [Cefapirin]  -2.614
32. CCN(CC)CCOC(=O)c1ccc(N)cc1Cl [Chloroprocaine]  -2.61
33. CCCCC(C)(O)C/C=C/[C@H]1[C@H](O)CC(=O)[C@@H]1CCCCCCC(=O)OC (mixture of isomers) [Misoprostol]  -2.379
34. Nc1nc2c(ncn2COCCO)c(=O)[nH]1 [Acyclovir]  -2.203
35. NC(=O)O[C@@H](Cn1ncnn1)c1ccccc1Cl [Cenobamate]  -2.197
36. C=CCC1(CC(C)C)C(=O)NC(=O)NC1=O [Butalbital]  -2.1203
37. Nc1ncnc2[nH]cnc12 [Adenine]  -2.1179
38. N[C@@H](CSCC(=O)O)C(=O)O [Carbocisteine]  -2.0492
39. CN1C(=O)CCS(=O)(=O)C1c1ccc(Cl)cc1 (stereo not shown) [Chlormezanone]  -2.039
40. NC[C@H](CC(=O)O)c1ccc(Cl)cc1 [Arbaclofen]  -2.01
41. CC12CCC(CC1=O)C2(C)C (stereo not shown) [Camphor]  -1.978
42. Nc1ccc(C(=O)O)c(O)c1 [Aminosalicylic acid]  -1.957
43. c1cnc2c(c1)ccc1cccnc12 [1,10-Phenanthroline]  -1.826
44. NCC(CC(=O)O)c1ccc(Cl)cc1 (stereo not shown) [Baclofen]  -1.672
45. C=CC1=C(C(=O)O)N2C(=O)[C@@H](NC(=O)/C(=N\O)c3csc(N)n3)[C@H]2SC1 [Cefdinir]  -1.65
46. N[C@@H](C(=O)N[C@@H]1C(=O)N2C(C(=O)O)=C(Cl)CS[C@H]12)c1ccccc1 [Cefaclor]  -1.566
47. CCOC(=O)[C@H](CCc1ccccc1)N[C@H]1CCc2ccccc2N(CC(=O)O)C1=O [Benazepril]  -1.349
48. CC1=C(C(=O)O)N2C(=O)[C@@H](NC(=O)[C@H](N)C3=CCC=CC3)[C@H]2SC1 [Cefradine]  -1.215
49. COc1cc2c(c(OC)c1OC)-c1ccc(OC)c(=O)cc1[C@@H](NC(C)=O)CC2 [Colchicine]  -0.9632
50. C[C@H](N)[C@@H](O)c1ccccc1 [Cathine]  -0.8785
51. NC(=O)C[C@H](N)C(=O)O [Asparagine]  -0.6526
52. OCc1ccccc1 [Benzyl alcohol]  -0.5155
53. Cn1c(=O)c2[nH]cnc2n(C)c1=O [Aminophylline]  -0.3227
54. Nc1ccn(C[C@@H](CO)OCP(=O)(O)O)c(=O)n1 [Cidofovir]  -0.2154
55. O=C(O)[C@H](O)c1ccccc1 [(R)-Mandelic acid]  -0.1409
56. O=C(O)[C@@H](O)c1ccccc1 [(S)-Mandelic acid]  0.07541
57. Nc1ncnc2c1ncn2[C@@H]1O[C@H](COP(=O)(O)OP(=O)(O)OP(=O)(O)O)[C@@H](O)[C@H]1O [ATP]  0.2948
58. NCCCNCCSP(=O)(O)O [Amifostine]  0.6691
